Literature values as cited in patent US20210128691A1 (priority 2019, published 2021).

Key:
pre-eclampsia = conditions: dietary supplements, high risk patients
[1] = in vivo
cyclic nucleotide PDE = conditions: rats made hypothyroid with increased PDE activity

## N=C(N)NCCC[C@H](N)C(=O)O [L-arginine]
pre-eclampsia
  incidence of PE: significantly reduce, but not eliminate

## N[C@@H](Cc1cc(I)c(Oc2cc(I)c(O)c(I)c2)c(I)c1)C(=O)O [T4, L-thyroxine]
[1]
  half-life: 120 to 170 h

## CN1CC(=O)N2[C@H](c3ccc4c(c3)OCO4)c3[nH]c4ccccc4c3C[C@@H]2C1=O [tadalafil]
[1]
  half-life: 17 to 18 h

## N[C@@H](Cc1cc(I)c(Oc2ccc(O)c(I)c2)c(I)c1)C(=O)O [T3, L-tri-iodothyronine]
other
  time to peak levels following ingestion: one to two
Following ingestion
  rise of serum concentration (amount of drug in circulation): 250% to 600
Cyclic nucleotide PDE
  PDE activity after administration: returned to normal
